{
  "source": "patent US20250152616A1",
  "about": "“COMPOSITIONS FOR AND METHODS OF TREATING, PREVENTING, AND/OR MITIGATING PAIN” (Duke University, priority 2022, published 2025)",
  "key": {"[1]": {"tested_on": "fractured tibiae", "assay": "Safranin O histology of fractured tibiae", "assay_type": "in vivo, mouse", "conditions": "21 days post-fracture", "protocol": "In all experiments, 12-week-old to 16-week-old C57BL/6J male mice (Jackson Laboratory, Bar Harbor, ME) and Lepr-cre; tdTomato reporter mice were used. The average mouse weight was 25 grams and mice were housed in groups of four to five, and kept on a 12-hr light-dark cycle with lights off at 1800 hr. All animals had ad libitum access to chow (PMI LabDiet 5001) and water. Fracture surgeries were performed as previously described (Zeng Y, et al. (2020) Adv Mater. 32:e1906022). Animals were anesthetized by isoflurane and injected with 1 mg/kg buprenorphine SR-LAB (ZooPharm, Laramie, WY). Each mouse was then placed in a supine position with the right tibia disinfected. After skin incision and reflection, proximal to the right knee, a 0.7-mm pin was inserted from the tibial plateau through the medullary cavity to stabilize the tibia, and a cut was made at the tibial midshaft to induce a transverse fracture. Bupivacaine (0.5%; Hospira, Lake Forest, IL) at ˜1 mg/kg body weight was applied at the surgical site following wound closure using 2 reflex clips (5 mm). For animals treated with control and adenosine-loaded macroporous hydrogels, macroporous hydrogels measuring approximately 5 mm (length)×3 mm (width)×1 mm (thick) containing either 1.05±0.1 mg adenosine (ADO) or no adenosine (CTL) were implanted adjacent to the fractures immediately. […]"}, "[2]": {"tested_on": "dissociated DRG neurons", "assay": "Fura-2 calcium imaging of dissociated DRG neurons stimulated with capsaicin", "assay_type": "cell-based, mouse", "description": "DRG were isolated from mice using a modified version of the previously described protocol (Perner C, et al. (2021) STAR Protoc. 2:100333). Briefly, mice were euthanized and dosed in 70% ethanol to prevent fur contamination. Mice were positioned prone, and an incision was made along the spine from the neck to the base of the tail. Under a dissecting microscope, the surrounding soft tissue of the spinal column was removed from the dorsal side by Friedman-Pearson Rongeurs (Fine Science Tools, Foster City, CA, Cat #16021-14) from the mid thoracic region to the lumbosacral joint. The vertebral bone surrounding the DRG was gently crushed and removed with rongeurs exposing the spinal cord. The DRG were carefully extracted near the foramen between the vertebral levels. L3 and L4 DRG were collected for analyses. Dissected DRG were placed directly into ice-cold DMEM-F12 medium (ThermoFisher, Cat #11320033) for in vitro culture, Trizol (ThermoFisher, Cat #15596018) for PCR analyses, or 4% PFA for histology. For cell culture experiments, collected DRG were digested in digestion solution comprised of collagenase type II (Worthington, Lakewood, NJ, Cat #LS004176) and dispase (1.5 mg/mL each) dissolved in DMEM/F12. DRG were agitated in a digestion solution on an orbital shaker at 60 rpm and 37° C. for 20 minutes and repeated thrice with fresh digestion solution. Next, the digestion solution was replaced with trypsin-EDTA (0.025%) in DMEM/F12 and incubated for an additional 15 min to disrupt the remaining cell-to-cell adhesions. The solution was then replaced with DMEM/F12 and FBS (1:3) to neutralize trypsin. DRG were triturated to create a cell suspension and gently layered onto 15% bovine serum albumin (BSA) solution without mixing and centrifuged for 6 min at 280 g with minimal acceleration and no deceleration to separate non-neuronal cells and debris (Owen D E, et al. (2012) Methods Mol Biol. 846:179-187). […]\nIntracellular cytosolic Ca^2+ was evaluated by Fura-2 loaded DRG neurons (Khomula E V, et al. (2019) J Neurosci. 39:7061-7073). […]"}},
  "data": [
    {"compound": "Nc1ncnc2c1ncn2[C@@H]1O[C@H](CO)[C@@H](O)[C@H]1O", "note": "[adenosine]", "values": [
      {"measurement": "callus size vs controls (histology)", "setting": "[1]", "result": "smaller callus size"},
      {"measurement": "cortical bone at fracture site vs controls (histology)", "setting": "[1]", "result": "more cortical bone across the fracture site"},
      {"measurement": "NGF-increased functional responses to capsaicin (Fura-2 average and peak intensity)", "setting": "[2]; NGF 200 ng/mL 1 day, adenosine 5 μM for 5 min, capsaicin 100 nM", "result": "attenuated"},
      {"measurement": "functional activity of DRG neurons (normalized peak intensity, calcium imaging)", "setting": "[2]; initial screening, two different concentrations of adenosine, capsaicin stimulation", "result": "decreased"}
    ]}
  ]
}
